Experimental data taken from patent US9308182B2 (TEVA PHARMACEUTICAL INDUSTRIES, LTD., priority 2012, dated 2016).
Where two headings read alike, the source gives them in different places.

Legend:
[1] = target: MAO-B (Rattus norvegicus, UniProt P19643); test: in vivo; conditions: for MAO-B activity, brain / MAO-B activity, intestine / MAO-B activity, liver: two weeks; for inhibition at 0.02 mg/kg/day / inhibition at 0.4 mg/kg/day / inhibition at 0.8 mg/kg/day / inhibition at 0.05 mg/kg/day / inhibition at 0.1 mg/kg/day / inhibition at 0.2 mg/kg/day: rat
Sequence of MAO-B (P19643 whole entry, the tested form may be a part): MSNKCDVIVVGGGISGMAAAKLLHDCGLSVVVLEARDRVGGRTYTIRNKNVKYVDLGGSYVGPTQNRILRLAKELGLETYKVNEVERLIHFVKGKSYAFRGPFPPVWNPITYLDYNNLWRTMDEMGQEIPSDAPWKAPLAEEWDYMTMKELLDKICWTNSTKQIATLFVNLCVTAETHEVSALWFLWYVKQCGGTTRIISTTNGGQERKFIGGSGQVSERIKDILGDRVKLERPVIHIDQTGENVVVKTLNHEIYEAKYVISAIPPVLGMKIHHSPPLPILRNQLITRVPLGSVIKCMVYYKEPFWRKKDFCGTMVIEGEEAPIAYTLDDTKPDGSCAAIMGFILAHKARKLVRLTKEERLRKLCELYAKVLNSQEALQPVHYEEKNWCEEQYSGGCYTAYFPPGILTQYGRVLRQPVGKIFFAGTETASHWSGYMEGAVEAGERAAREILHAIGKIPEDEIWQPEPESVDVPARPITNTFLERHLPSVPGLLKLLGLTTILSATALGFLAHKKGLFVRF
Source text: (§1) ALZET® osmotic minipumps are described in Perkins L, Peer C, and Murphy-Hackley P. “Chapter 21: The use of mini-osmotic pumps in continuous infusion studies” in Handbook of Pre-Clinical Continuous Intravenous Infusion, (Smith & Healing, eds., Taylor and Francis, 2000), the contents of which are incorporated herein by reference.
(§2) The osmotic minipumps were inserted subcutaneously with a single surgical procedure: after clipping the fur from the dorsal area and cleaning the skin with antiseptic skin preparation, about 1 cm long incision was made on the dorsum of the animal, midway between both scappulae. The pump was placed along the axis of the body to one side of the backbone. The incision was positioned about 1-2 cm caudal to the estimated caudal end of the minipump when it is in place.
(§3) After two weeks of treatment the animals were sacrificed. From each rat, brain (half) and a part of liver were dissected and frozen. The intestine was excised about ½ cm below the stomach about 1-2 cm long, washed with sucrose 0.32 Molar and frozen at −70° C.
(§4) Tissue homogenates were pre incubated (37° C.) in the presence of clorgyline or deprenyl to inhibit the activity of MAO-A or MAO-B respectively. For MAO-B determination, samples were incubated for 20 minutes with C^14 PEA 10 μM and for MAO-A determination samples were incubated 30 minutes with C^14 −5HT 100 μM as substrate Termination of the reaction was done by acidification. The labeled metabolites were extracted into toluene:ethyl acetate, and counted in a β counter.

[2] = target: MAO-A (Rattus norvegicus, UniProt P21396); test: in vivo; conditions: for MAO-A activity, brain / MAO-A activity, intestine / MAO-A activity, liver: two weeks; for MAO-A inhibition in the intestine: three lowest doses 0.02-0.1 mg/kg/day (salt); for inhibition at 0.02 mg/kg/day / inhibition at 0.05 mg/kg/day / inhibition at 0.1 mg/kg/day / inhibition at 0.2 mg/kg/day / inhibition at 0.4 mg/kg/day / inhibition at 0.8 mg/kg/day: rat
Sequence of MAO-A (P21396 whole entry): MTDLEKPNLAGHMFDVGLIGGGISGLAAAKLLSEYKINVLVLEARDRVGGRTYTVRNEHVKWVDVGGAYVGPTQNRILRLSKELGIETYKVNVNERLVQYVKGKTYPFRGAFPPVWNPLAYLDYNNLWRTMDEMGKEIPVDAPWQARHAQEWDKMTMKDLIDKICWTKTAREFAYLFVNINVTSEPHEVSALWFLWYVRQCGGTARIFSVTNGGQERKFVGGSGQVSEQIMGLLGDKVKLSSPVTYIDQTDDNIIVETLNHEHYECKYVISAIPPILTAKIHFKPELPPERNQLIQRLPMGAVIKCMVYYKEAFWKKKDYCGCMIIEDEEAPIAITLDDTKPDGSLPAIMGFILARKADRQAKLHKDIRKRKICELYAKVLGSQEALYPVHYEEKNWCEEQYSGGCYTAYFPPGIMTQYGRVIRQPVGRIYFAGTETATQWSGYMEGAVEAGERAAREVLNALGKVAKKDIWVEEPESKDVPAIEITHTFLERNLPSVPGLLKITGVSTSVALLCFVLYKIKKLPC
Source text: as §1, §2, §3, §4

[3] = AZILECT Product Label, May 2006; cited from earlier work
[4] = brain, oral, 0.02 mg/kg/day (salt)
[5] = brain, oral, 0.05 mg/kg/day (salt)
[6] = brain, oral, 0.1 mg/kg/day (salt)
[7] = brain, oral, 0.2 mg/kg/day (salt)
[8] = brain, oral, 0.4 mg/kg/day (salt)
[9] = brain, oral, 0.8 mg/kg/day (salt)
[10] = brain, sc ALZET pumps, 0.02 mg/kg/day (salt)
[11] = brain, sc ALZET pumps, 0.05 mg/kg/day (salt)
[12] = brain, sc ALZET pumps, 0.1 mg/kg/day (salt)
[13] = brain, sc ALZET pumps, 0.2 mg/kg/day (salt)
[14] = brain, sc ALZET pumps, 0.4 mg/kg/day (salt)
[15] = intestine, oral, 0.02 mg/kg/day (salt)
[16] = intestine, oral, 0.05 mg/kg/day (salt)
[17] = intestine, oral, 0.1 mg/kg/day (salt)
[18] = intestine, oral, 0.2 mg/kg/day (salt)
[19] = intestine, oral, 0.4 mg/kg/day (salt)
[20] = intestine, oral, 0.8 mg/kg/day (salt)
[21] = intestine, sc ALZET pumps, 0.02 mg/kg/day (salt)
[22] = intestine, sc ALZET pumps, 0.05 mg/kg/day (salt)
[23] = intestine, sc ALZET pumps, 0.1 mg/kg/day (salt)
[24] = intestine, sc ALZET pumps, 0.2 mg/kg/day (salt)
[25] = intestine, sc ALZET pumps, 0.4 mg/kg/day (salt)
[26] = intestine, sc ALZET pumps, 0.8 mg/kg/day (salt)
[27] = po, read-out: Percent of MAO-B inhibition, brain
[28] = po, read-out: Percent of MAO-B inhibition, intestine
[29] = po, read-out: Percent of MAO-B inhibition, liver
[30] = sc, read-out: Percent of MAO-B inhibition, brain
[31] = sc, read-out: Percent of MAO-B inhibition, intestine
[32] = sc, read-out: Percent of MAO-B inhibition, liver
[33] = po, read-out: Percent of MAO-A inhibition, brain
[34] = po, read-out: Percent of MAO-A inhibition, intestine
[35] = po, read-out: Percent of MAO-A inhibition, liver
[36] = sc, read-out: Percent of MAO-A inhibition, brain
[37] = sc, read-out: Percent of MAO-A inhibition, intestine
[38] = sc, read-out: Percent of MAO-A inhibition, liver

C#CCN[C@@H]1CCc2ccccc21 [rasagiline, R(+)-N-propargyl-l-aminoindan]
MAOB inhibition in the brain, ALZET pumps versus oral group ([1]; brain): No change
MAO-B activity, brain [1, 4]: 1586 dpm
MAO-B activity, brain [1, 5]: 494 dpm
MAO-B activity, brain [1, 6]: 181 dpm
MAO-B activity, brain [1, 7]: 69 dpm
MAO-B activity, brain [1, 8]: 34 dpm
MAO-B activity, brain [1, 9]: 9 dpm
MAO-B activity, brain [1, 10]: 1229 dpm
MAO-B activity, brain [1, 11]: 346 dpm
MAO-B activity, brain [1, 12]: 198 dpm
MAO-B activity, brain [1, 13]: 75 dpm
MAO-B activity, brain [1, 14]: 38 dpm
MAOB inhibition in the intestine and liver, ALZET pumps compared with oral administration ([1]; intestine and liver, daily dose of up to 0.1 mg/kg): lower
maximal MAO-B inhibition in the intestine ([1]; intestine, both routes (oral, ALZET pumps)): about 85%
MAO-B activity, intestine [1, 15]: 3633 dpm
MAO-B activity, intestine [1, 16]: 3115 dpm
MAO-B activity, intestine [1, 17]: 2493 dpm
MAO-B activity, intestine [1, 18]: 2424 dpm
MAO-B activity, intestine [1, 19]: 2108 dpm
MAO-B activity, intestine [1, 20]: 2105 dpm
MAO-B activity, intestine [1, 21]: 8265 dpm
MAO-B activity, intestine [1, 22]: 4346 dpm
MAO-B activity, intestine [1, 23]: 3225 dpm
MAO-B activity, intestine [1, 24]: 2391 dpm
MAO-B activity, intestine [1, 25]: 1852 dpm
MAO-B activity, intestine [1, 26]: 1879 dpm
MAO-B activity, liver ([1]; oral, 0.02 mg/kg/day (salt)): 1127 dpm
MAO-B activity, liver ([1]; oral, 0.05 mg/kg/day (salt)): 511 dpm
MAO-B activity, liver ([1]; oral, 0.1 mg/kg/day (salt)): 224 dpm
MAO-B activity, liver ([1]; oral, 0.2 mg/kg/day (salt)): 136 dpm
MAO-B activity, liver ([1]; oral, 0.4 mg/kg/day (salt)): 38 dpm
MAO-B activity, liver ([1]; sc ALZET pumps, 0.02 mg/kg/day (salt)): 1974 dpm
MAO-B activity, liver ([1]; sc ALZET pumps, 0.05 mg/kg/day (salt)): 912 dpm
MAO-B activity, liver ([1]; sc ALZET pumps, 0.1 mg/kg/day (salt)): 486 dpm
MAO-B activity, liver ([1]; sc ALZET pumps, 0.2 mg/kg/day (salt)): 312 dpm
MAO-B activity, liver ([1]; sc ALZET pumps, 0.4 mg/kg/day (salt)): 181 dpm
MAO-B activity, liver ([1]; sc ALZET pumps, 0.8 mg/kg/day (salt)): 166 dpm
inhibition at 0.02 mg/kg/day [1, 27]: 83%
inhibition at 0.4 mg/kg/day [1, 27]: 100%
inhibition at 0.8 mg/kg/day [1, 27]: 100%
inhibition at 0.02 mg/kg/day [1, 28]: 74%
inhibition at 0.05 mg/kg/day [1, 28]: 78%
inhibition at 0.1 mg/kg/day [1, 28]: 82%
inhibition at 0.2 mg/kg/day [1, 28]: 83%
inhibition at 0.4 mg/kg/day [1, 28]: 85%
inhibition at 0.8 mg/kg/day [1, 28]: 85%
inhibition at 0.02 mg/kg/day [1, 29]: 83%
inhibition at 0.05 mg/kg/day [1, 29]: 92%
inhibition at 0.8 mg/kg/day [1, 29]: 100%
inhibition at 0.4 mg/kg/day [1, 30]: 100%
inhibition at 0.8 mg/kg/day [1, 30]: 100%
inhibition at 0.02 mg/kg/day [1, 31]: 37%
inhibition at 0.05 mg/kg/day [1, 31]: 67%
inhibition at 0.1 mg/kg/day [1, 31]: 76%
inhibition at 0.2 mg/kg/day [1, 31]: 82%
inhibition at 0.4 mg/kg/day [1, 31]: 86%
inhibition at 0.8 mg/kg/day [1, 31]: 86%
inhibition at 0.02 mg/kg/day [1, 32]: 67%
inhibition at 0.05 mg/kg/day [1, 32]: 85%
inhibition at 0.1 mg/kg/day [1, 32]: 92%
dose dependence of MAO-A inhibition ([2]; all tissues (intestine, brain, liver)): Dose Dependent
MAO-A inhibition in the brain, ALZET pumps compared with oral administration ([2]; brain): higher
MAO-A activity, brain [2, 4]: 3441 dpm
MAO-A activity, brain [2, 5]: 3031 dpm
MAO-A activity, brain [2, 6]: 2822 dpm
MAO-A activity, brain [2, 7]: 2319 dpm
MAO-A activity, brain [2, 8]: 1417 dpm
MAO-A activity, brain [2, 9]: 803 dpm
MAO-A activity, brain [2, 10]: 3479 dpm
MAO-A activity, brain [2, 11]: 2974 dpm
MAO-A activity, brain [2, 12]: 2595 dpm
MAO-A activity, brain [2, 13]: 1613 dpm
MAO-A activity, brain [2, 14]: 917 dpm
MAO-A activity, brain ([2]; brain, sc ALZET pumps, 0.8 mg/kg/day (salt)): 466 dpm
MAO-A inhibition in the intestine, subcutaneous pumps compared with oral administration ([2]; intestine, 14 days, differences statistically significant): lower
MAO-A activity, intestine [2, 15]: 2712 dpm
MAO-A activity, intestine [2, 16]: 2607 dpm
MAO-A activity, intestine [2, 17]: 2308 dpm
MAO-A activity, intestine [2, 18]: 1891 dpm
MAO-A activity, intestine [2, 19]: 1194 dpm
MAO-A activity, intestine [2, 20]: 785 dpm
MAO-A activity, intestine [2, 21]: 3199 dpm
MAO-A activity, intestine [2, 22]: 2831 dpm
MAO-A activity, intestine [2, 23]: 3029 dpm
MAO-A activity, intestine [2, 24]: 2604 dpm
MAO-A activity, intestine [2, 25]: 1937 dpm
MAO-A activity, intestine [2, 26]: 1708 dpm
MAOA inhibitory values in the intestine ([2]; intestine, sc ALZET pumps, dose from 0.2 to 0.8 mg/kg): < 50%
MAO-A inhibition in the intestine ([2]; intestine, given by pumps): did not inhibit
MAO-A inhibition in the intestine ([2]; intestine, given orally): 26-37%
hepatic MAO-A inhibition, subcutaneous ALZET pumps compared with oral ([2]; liver): higher
MAO-A activity, liver ([2]; liver, oral, 0.02 mg/kg/day (salt)): 2127 dpm
MAO-A activity, liver ([2]; liver, oral, 0.05 mg/kg/day (salt)): 2199 dpm
MAO-A activity, liver ([2]; liver, oral, 0.1 mg/kg/day (salt)): 1963 dpm
MAO-A activity, liver ([2]; liver, oral, 0.2 mg/kg/day (salt)): 1582 dpm
MAO-A activity, liver ([2]; liver, oral, 0.4 mg/kg/day (salt)): 1058 dpm
MAO-A activity, liver ([2]; liver, oral, 0.8 mg/kg/day (salt)): 681 dpm
MAO-A activity, liver ([2]; liver, sc ALZET pumps, 0.02 mg/kg/day (salt)): 2192 dpm
MAO-A activity, liver ([2]; liver, sc ALZET pumps, 0.05 mg/kg/day (salt)): 2185 dpm
MAO-A activity, liver ([2]; liver, sc ALZET pumps, 0.1 mg/kg/day (salt)): 1930 dpm
MAO-A activity, liver ([2]; liver, sc ALZET pumps, 0.2 mg/kg/day (salt)): 646 dpm
MAO-A activity, liver ([2]; liver, sc ALZET pumps, 0.4 mg/kg/day (salt)): 27 + dpm
MAO-A activity, liver ([2]; liver, sc ALZET pumps, 0.8 mg/kg/day (salt)): 4 dpm
inhibition at 0.02 mg/kg/day [2, 33]: 6%
inhibition at 0.05 mg/kg/day [2, 33]: 15%
inhibition at 0.1 mg/kg/day [2, 33]: 23%
inhibition at 0.2 mg/kg/day [2, 33]: 37%
inhibition at 0.4 mg/kg/day [2, 33]: 61%
inhibition at 0.8 mg/kg/day [2, 33]: 78%
inhibition at 0.02 mg/kg/day [2, 34]: 26%
inhibition at 0.1 mg/kg/day [2, 34]: 37%
inhibition at 0.2 mg/kg/day [2, 34]: 48%
inhibition at 0.8 mg/kg/day [2, 34]: 79%
inhibition at 0.02 mg/kg/day [2, 35]: 8%
inhibition at 0.05 mg/kg/day [2, 35]: 5%
inhibition at 0.1 mg/kg/day [2, 35]: 18%
inhibition at 0.2 mg/kg/day [2, 35]: 31%
inhibition at 0.8 mg/kg/day [2, 35]: 70%
inhibition at 0.02 mg/kg/day [2, 36]: 8%
inhibition at 0.05 mg/kg/day [2, 36]: 21%
inhibition at 0.1 mg/kg/day [2, 36]: 31%
inhibition at 0.2 mg/kg/day [2, 36]: 57%
inhibition at 0.4 mg/kg/day [2, 36]: 76%
inhibition at 0.8 mg/kg/day [2, 36]: 88%
inhibition at 0.02 mg/kg/day [2, 37]: -8%
inhibition at 0.05 mg/kg/day [2, 37]: 1%
inhibition at 0.1 mg/kg/day [2, 37]: -3%
inhibition at 0.2 mg/kg/day [2, 37]: 12%
inhibition at 0.4 mg/kg/day [2, 37]: 34%
inhibition at 0.8 mg/kg/day [2, 37]: 42%
inhibition at 0.02 mg/kg/day [2, 38]: 1%
inhibition at 0.05 mg/kg/day [2, 38]: 1%
inhibition at 0.1 mg/kg/day [2, 38]: 13%
inhibition at 0.2 mg/kg/day [2, 38]: 71%
inhibition at 0.4 mg/kg/day [2, 38]: 99%
inhibition at 0.8 mg/kg/day [2, 38]: 100%
absolute bioavailability [3]: about 36%
